{"source": "patent US20240108618A1", "about": "“KRAS G12C INHIBITOR DOSING REGIMENS” (Eli Lilly and Company, priority 2022, published 2024)", "test_system": "HCC44", "test": "HCC44 (lung) xenograft model", "type": "in vivo, mouse", "protocol": "For xenograft models of H1373, HCC44, MiaPaca-2, SW1463, SW837, KYSE-410 and UM-UC-3, typically 5-10×10^6 cells in a 1:1 matrigel mix (0.2 mL total volume) are implanted by subcutaneous injection in hind leg of nude mice. […] Treatment is initiated with oral administration (gavage) of testing compound or vehicle (20% captisol, 25 mM phosphate, pH2.0) in 0.2 mL volume when tumor size reaches approximately 200-300 mg. Tumor growth and body weight are monitored over time to evaluate efficacy and signs of toxicity. For EL3187 PDX model, frozen vials containing tumor fragments are thawed at 37° C. in a water bath. The tumor fragments are transferred to 50 mL Falcon tube and the ice cold DMEM medium is slowly added into the tube to a total volume of 35 mL. Then the tumor fragments are centrifuged at 130×g for 2 minutes at 4° C. and supernatant is aspirated. This washing step is repeated twice and the tumor fragments are resuspended in 10 mL DMEM for implantation into athymic nude-Foxn1nu mice (Envigo RMS, Inc., Mount Comfort, Indiana). Once tumor volumes reach 800 to 1000 mm^3, animals are sacrificed and tumors are harvested using aseptic technique. Fresh tumors are cut into 10 to 15 mm^3 fragments and placed into cold Gibco hibernate medium. The tumor fragments are subcutaneously implanted into animals with a 10 g trochar needle. When tumor size reaches 200 to 300 mm^3, the animals are randomized for compound treatment.\nAmong models listed in Table 2, EL3187 is a patient-derived xenograft (PDX) model, and all other are tumor xenograft models."}
{"smiles": "C=CC(=O)N1CCN2C(=O)c3cc(F)c(-c4ccc(F)c5sc(N)c(C#N)c45)c(Cl)c3OCC[C@H]2C1", "note": "(single isomer, unassigned) [Formula I]", "values": [{"measurement": "tumor growth inhibition (%) or regression (− %)", "setting": "5 mg/kg BID x28", "value": 57.5, "unit": "%"}, {"measurement": "tumor growth inhibition (%) or regression (− %)", "setting": "5 mg/kg QD x28", "value": 28.3, "unit": "%"}, {"measurement": "tumor growth inhibition (%) or regression (− %)", "setting": "10 mg/kg BID x28", "value": 61.8, "unit": "%"}, {"measurement": "tumor growth inhibition (%) or regression (− %)", "setting": "10 mg/kg QD x28", "value": 32.7, "unit": "%"}, {"measurement": "tumor growth inhibition (%) or regression (− %)", "setting": "30 mg/kg BID x28", "value": 84.1, "unit": "%"}, {"measurement": "tumor growth inhibition (%) or regression (− %)", "setting": "30 mg/kg QD x28", "value": 77, "unit": "%"}]}
